The values below come from patent US7829114B2, “Capsules containing aqueous fill compositions stabilized with derivatized cyclodextrin” (CyDex Pharmaceuticals, Inc., priority 2002, dated 2010).

The nature of series [1]: Shell stability on exposure to aqueous fill composition (half-shell integrity test, H.S.I.T.). The class given is physicochemical. Particulars: HFB. From the text:
(§1) Agitation continued until all the SAE-CD dissolved.

The nature of series [2]: Shell stability toward aqueous fill composition, statements on soft gelatin capsules. The class given is physicochemical. Particulars: for stability provided to capsules: about ≧60% wt.
Series [3] is described as follows: Shell stability on exposure to aqueous fill composition (half-shell integrity test, H.S.I.T.). Particulars: LFB. The method, then:
A study was conducted to determine whether or not complexation of a drug to the SAE-CD alters the ability of the SAE-CD to stabilize the capsule shell against dissolution, erosion, swelling or degradation caused by water in the fill composition enclosed within the capsule shell. Banner's hydrophilic, HFB, and lipophilic, LFB, air fill size 35 oval gelatin capsules were used in this study, which was performed as described below. […] The SAE-CD was slowly added to the water while it was stirring and on a hot plate. Agitation continued until all the SAE-CD dissolved. The SAE-CD was divided by weighing in equal amounts into nine vials (one for each drug). […] The amount of drug added produced a composition that contained a normal dose of drug in 1 gram. The vials were agitated and heated until a solution was obtained or the active was uniformly suspended. […]
Method A: Half-Shell integrity Test (H.S.I.T.)
In a closed container, a portion of a capsule shell is exposed to an aqueous fill composition comprising a known amount of derivatized cyclodextrin, water and optionally one or more other excipients. Observation of changes, or lack thereof, on the exposed portion's size, appearance, shape, dissolution, erosion, degradation, hardness, and/or translucence are recorded periodically over time. A rating scale is used to quantify the overall performance of the capsule portion during the test.

Test in series [4]: as above
The conditions noted are these: HFC. Type of series: physicochemical. As to the method:
(§2) The same tests were performed on gelatin capsules obtained from CARDINAL HEALTH.
It has been discovered that PEG has a beneficial effect upon the shell-stabilizing property of an aqueous fill composition comprising SAE-CD. FIG. 6a depicts a ternary graph correlating the concentration of SAE-CD, water and PEG in a fill composition to the H.S.I.T. rating of a soft shell capsule exposed to the fill composition. Aqueous fill solutions comprising differing amounts of PEG, SAE-CD and water were prepared. The stability tests were conducted as described below. The HFC soft gelatin capsules described herein were used. For a composition comprising 40% wt. SBE-CD, 40% wt. water and 20% wt. PEG, the shell was stable for greater than 5 days. For a composition comprising 35% wt. SBE-CD, 35% wt. water and 30% wt. PEG, the shell was stable for greater than 5 days. For a composition comprising 18% wt. SBE-CD, 42% wt. water and 40% wt. PEG, the shell was stable for greater than 5 days. Under each of the conditions tested, the control sample excluded SAE-CD, i.e., containing only water and PEG at the indicated concentration, and failed within 24 hours. About the same results were obtained for the HFB (FIG. 6b), LFB (FIG. 7a) and LFC (FIG. 7b) soft gelatin capsules. Increasing the SAE-CD concentration to values higher than those indicated further increases the shelf-life of the shell or provides an HSIT rating of at least 4. Stabilized aqueous fill composition-containing capsule formulations can be achieved with each capsule if the following fill compositions are used.

Test in series [5]: as above
Type of series: physicochemical. Particulars: LFC. As to the method: as §2

A short description of series [6]: Water activity measurement. Particulars: for Water Activity (approximate values): about 20-25° C. The class given is physicochemical. The method, then: Without being held bound to a particular mechanism, it is believed that the increasing the concentration of derivatized cyclodextrin present in the aqueous fill composition results in reduced water activity for the fill composition. The table below provides a summary of water activity versus concentration of cyclodextrin derivatives or some shell-stabilizing materials in water at about 20-25° C., or ambient temperature.
The values detailed above are approximate and can vary from instrument to instrument. These values were determined according to the procedure described herein on a water activity meter described herein. The numbers can also vary within the standard deviation of a particular instrument. It is also possible for the numbers to vary according to the accuracy and reproducibility of the instrument used as well as the method for calibrating the instrument with solution standards of known water activity.
Water activity was measured by placing a sample solution in a small, sealed container and determining the equilibrium humidity and temperature in the container. Instruments such as the HygroLab 3 from Rotronic Instrument Corp. , Huntington, N.Y. were used to measure the water activity. The humidity is determined using a thin film capacitive sensor in the headspace of the container. The temperature is determined using a Pt RTD 100 sensor. From these measurements the activity of water (Aw) is calculated by the instrument. The instrument has an accuracy of about ±0.015 Aw and a repeatability of about ±0.005 Aw. Carefully prepared salt-containing stock solutions of known concentration and water activity were used to calibrate the instrument prior to use.

A short description of series [7]: Clarity / appearance of fill composition. Particulars: normal dose of drug in 1 gram. The class given is physicochemical.
Excerpt: as §1
Clarity of the fill compositions herein can be determined by visual inspection; however, other known methods for determining the clarity of a fill composition can be performed. Exemplary other methods include transmittance spectrophotometry at a wavelength of 800 nm.

Where [8] appears, read: 40% wt. cyclodextrin derivative in water.
The mark [9] stands for this setting: 50% wt. cyclodextrin derivative in water.
The mark [10] stands for this setting: 60% wt. cyclodextrin derivative in water.
Where [11] appears, read: 70% wt. cyclodextrin derivative in water.

Where a name gives a salt, the structure may show the parent alone. Where only a bound is given, the exact number is not on record here.

In the case of hydroxypropyl cyclodextrin [HP-CD], the “Increase in shell size” value in series [1] (setting [8]) is reported as more than 3 × × original; in series [1] (setting [9]) it was 2 × × original; in series [1] (setting [10]), 2 × × original; in series [1] (setting [11]), 1.5 × × original; in series [3] (setting [8]), more than 3 × × original; in series [3] (setting [9]) it was 2 × × original. Further, the “Increase in shell size” value in series [3] (setting [10]) is 2 × × original; in series [3] (setting [11]) it was 1.5 × × original; in series [4] (setting [8]) it was more than 3 × × original; in series [4] (setting [9]) it was 2 × × original; in series [4] (setting [10]), 2 × × original; in series [4] (setting [11]) it was 1.5 × × original. In addition, the “Increase in shell size” value in series [5] (setting [8]) is reported as more than 3 × × original; in series [5] (setting [9]), 2 × × original; in series [5] (setting [10]), 2 × × original; in series [5] (setting [11]), 1.5 × × original. Also, the Observations entry in series [1] (setting [8]) is “Deformed”; in series [1] (setting [9]), “shape intact”; in series [1] (setting [10]) it was “Shape intact”; in series [1] (setting [11]), “Shape intact”; in series [3] (setting [8]), “Deformed”; in series [3] (setting [9]), “shape intact”. In addition, the Observations entry is on record as “Shape intact” in series [3] (setting [10]); “Shape intact” in series [3] (setting [11]); “Deformed” in series [4] (setting [8]); “shape intact” in series [4] (setting [9]); “Slight deformity” in series [4] (setting [10]); “Shape intact” in series [4] (setting [11]). The Observations result is reported as “Deformed” in series [5] (setting [8]), “Shape intact” in series [5] (setting [9]), “Slight deformity” in series [5] (setting [10]) and “Shape intact” in series [5] (setting [11]). Also, the Time for failure in series [1] (setting [8]) is reported as 2 days; in series [1] (setting [9]), 4 days; in series [1] (setting [10]), 7 days; in series [1] (setting [11]), 14 days; in series [3] (setting [8]), 2 days; in series [3] (setting [9]), 4 days. Also, the Time for failure in series [3] (setting [10]) is reported as 7 days; in series [3] (setting [11]), 14 days; in series [4] (setting [8]) it was 2 days; in series [4] (setting [9]), 4 days; in series [4] (setting [10]), 7 days; in series [4] (setting [11]) it was 14 days. Further, the Time for failure in series [5] (setting [8]) is recorded as 2 days; in series [5] (setting [9]) it was 4 days; in series [5] (setting [10]), 7 days; in series [5] (setting [11]), 14 days. Besides, the “shelf-life of soft gelatin capsules” value in series [2] (60% wt. or more based upon total weight of water and HP-CD) is “at least one week”. Besides, the “stability provided to capsules” value in series [2] (LFB and LFC soft gelatin capsules as printed, FIG. 2) is listed as “at least one week stability”; in series [2] (LFB and LFC soft gelatin capsules, FIG. 1) it was “at least a one-week stability”. Further, the “Water Activity (approximate values)” value in series [6] (10 % w/w in water) is on record as approximately 0.99; in series [6] (20 % w/w in water), approximately 0.99; in series [6] (30 % w/w in water), approximately 0.98; in series [6] (40 % w/w in water) it was approximately 0.98; in series [6] (50 % w/w in water), approximately 0.97; in series [6] (60 % w/w in water) it was approximately 0.94. In addition, the “Water Activity (approximate values)” value in series [6] (70 % w/w in water) is approximately 0.93.

As for “Dimethylcyclodextrin [DMCD, reference compound]”, the “effect on stability of the shell” value in series [2] (about 42% wt., maximum achievable concentration, FIG. 2) is “only slightly increased the stability of the shell”. The “ability to stabilize soft gelatin capsules from water in the fill composition” value in series [2] (at saturation concentration in water, FIG. 4) is “unable to stabilize”. For the same compound, the water activity result in series [6] (43% wt. in water, the approximate saturation concentration) is reported as “approximately 0.996”.

Turning to `CN[C@H]1CC[C@@H](c2ccc(Cl)c(Cl)c2)c2ccccc21` [Sertraline HCl], the Fill composition appearance entry in series [7] (60% w/w SAE-CD) was “solution”; in series [7] (70% w/w SAE-CD), “clear solution”.

With `C[C@]12CCC(=O)C=C1CC[C@@H]1[C@@H]2CC[C@@]2(C)[C@H]1CC[C@]2(C)O` [Methyltestosterone], the Fill composition appearance result in series [7] (60% w/w SAE-CD) and in series [7] (70% w/w SAE-CD) was “clear solution” each time.

`C(=C\c1ccccc1)/CN1CCN(C(c2ccccc2)c2ccccc2)CC1` [Cinnarizine]: the Fill composition appearance result in series [7] (60% w/w SAE-CD) and in series [7] (70% w/w SAE-CD) was “suspension” throughout.

`COc1ccc2c(c1)c(CC(=O)O)c(C)n2C(=O)c1ccc(Cl)cc1` [Indomethacin]: the Fill composition appearance result in series [7] (60% w/w SAE-CD) is “solution”; in series [7] (70% w/w SAE-CD) it was “clear solution”.

Take `C[C@]12CC[C@H]3[C@@H](CCC4=CC(=O)CC[C@@]43C)[C@@H]1CC[C@@H]2O` [Testosterone]: the Fill composition appearance entry in series [7] (60% w/w SAE-CD) and in series [7] (70% w/w SAE-CD) was “clear solution” throughout.

Turning to `C[C@]12CCC(=O)C=C1CC[C@@H]1[C@@H]2[C@@H](O)C[C@@]2(C)[C@H]1CC[C@]2(O)C(=O)CO` [Hydrocortisone], the Fill composition appearance result in series [7] (60% w/w SAE-CD) and in series [7] (70% w/w SAE-CD) was “clear solution” throughout.

Consider `CC(C)(C(=O)O)c1ccc(C(O)CCCN2CCC(C(O)(c3ccccc3)c3ccccc3)CC2)cc1` (centres unmarked) [Fexofenadine HCl], for which the Fill composition appearance result in series [7] (60% w/w SAE-CD) is “solution”; in series [7] (70% w/w SAE-CD), “clear solution”.

On to `COc1ccccc1OCCNCC(O)COc1cccc2[nH]c3ccccc3c12` (centres unmarked) [Carvedilol], for which the Fill composition appearance entry in series [7] (60% w/w SAE-CD) was “solution”; in series [7] (70% w/w SAE-CD) it was “clear solution”.
